Results on two substances are retold here after patent US20210128457A1 (priority 2019, published 2021).

Read-outs that look alike come from different tables or passages of the source.

In one data set the test system is cochlear hair cells. The experiment in a line: Gentamicin distribution in cochlear hair cells, RWS versus transcanal USM. The following applies: stood 3 minutes without ultrasound.
The format of data set [1] is in vitro ADME. The source says:
In order to understand the effect of ultrasound transcranial administration (behind the ear) to release the drug through the round window membrane (single-membrane), and the effect of ultrasound transcanal administration to release the drug through the eardrum and the round window membrane (two-membranes), 3D-printed material extrusion was used for designing three drug delivery devices:
M1: single-membrane group (FIGS. 5A to 5C), a dialysis membrane 80 was sandwiched between the donor end 10 (Donor area) and the receiving end 20 (Receptor area) for mimicking the position of the round window membrane.
M1-20°: single-membrane with tilt group, the round window membrane of the guinea pig's ear was not perpendicular to the ear canal, so the ultrasonic probe originally perpendicular to the donor end 10 was tilted at an angle of about 20 degrees (FIG. 5C) to make the experiment more realistic. That is, after the top of the ultrasonic probe was placed at the surface center of saline in the donor end 10, the angle between the long axis direction of the ultrasonic probe and the long axis direction of the device was about 20 degrees.
M1+B: The single-membrane transcranial group (FIG. 5D) differed from the single-membrane group in that the skull 90 was placed on top of the donor end 10; and
M2: two-membranes group (FIGS. 5E to 5F), the dialysis membranes 80 were respectively sandwiched between the donor end 10 and the interval chamber 30 of the device, and between the interval chamber 30 and the receiving end 20, where the donor end 10 simulated the external ear canal, the interval chamber 30 simulated the middle ear cavity, and the receiving end 20 simulated the inner ear.
The above groups simulated the actual guinea pig's ear structure and the volume in each area. The printing material was polyethylene terephthalate (PETG). A suitable molecular weight (Orange scientific, OrDial D-Clean, MW=1000) was chosen for the dialysis membrane 80 to separate the sample from the tested drug. About 400 μL of saline was injected into the receiving end 20 to simulate the actual inner ear lymph fluid volume of the guinea pig. […] The experiment samples were injected to the donor end 10 of the single-membrane group, the single-membrane transcranial group and the single-membrane with tilt group, and were injected to the interval chamber 30 of the two-membranes group, to mimic the volume of the middle ear cavity in the middle ear cavity of the guinea pigs. The single-membrane group and the two-membranes group were subjected to 3 W/cm^2 ultrasonic waves for 3 times (1 minute each time), while the single-membrane transcranial group blocked by the skull 90 was extended to 3 times (3 minutes each time) to ensure inducing the cavitation. […] In each group, saline in the receiving end 20 before the experiment, saline in the donor end 10 or the interval chamber 30 after the experiment, and saline in the receiving end 20 after the experiment were sampled for detecting fluorescence value.

The format of data set [2] is in vivo, guinea pigs. The following applies: guinea pig. The source says:
Pigmented guinea pigs with normal sound reflection (Preyer's reflex) were used. The experimental group was divided into the following four groups:
The structure of the ear includes an outer ear 110, a middle ear 120, an inner ear 130, a tympanic membrane 140, and a round window membrane 150. The outer ear 110 includes an external ear canal 111, the middle ear 120 includes auditory ossicles 121 and a middle ear cavity 122, and the inner ear 130 includes a cochlea 131. The ultrasonic device 210 was placed in the external ear canal 111, and the ultrasound waves were generated by an ultrasonic device 210. The ultrasound waves were transmitted to the middle ear cavity 122 and induced the cavitation on the microbubbles 220 located in the middle ear cavity 122.
3 W/cm^2 ultrasound was administered three times (3 minutes each time) at the mark place, and the solution in the middle ear cavity was replaced every time.
After the animal experiment (n=4), the animals were sacrificed and the tympanic bullae were taken out. About 10 μL of perilymph fluid was collected and centrifuged. The supernatant was diluted at a ratio of 1:100 for detecting fluorescence value.
After the animal experiment had finished (n=4), the animals were sacrificed and the tympanic bullae were taken out. About 10 μL of perilymph fluid was collected and centrifuged. The supernatant was diluted at a ratio of 1:100 for detecting fluorescence value.

Excerpt for cochlear hair cells: Because phalloidin binds to the cytoskeletal actin, it is used to mark the location of hair cells. […] Merge column is the overlay of the left two columns, it is more obvious to see the distribution of gentamicin in the cochlea. […] The green dots indicated the uptake of gentamicin in the hair cells.

On to Gentamicin, for which the “gentamicin uptake in hair cells (green fluorescence), second turn and third turn” value in the data set on cochlear hair cells is reported as “did not found the dot-like fluorescence”.
biotin-FITC: the “ratio of permeability USM/RWS” value is reported as “about 3.74 folds” in data set [1] (M1+B single-membrane transcranial group), “about 5.67 folds” in data set [1] (M1-20° single-membrane with tilt group), “about 6.91 folds” in data set [1] (M1 single-membrane group) and “about 4.77 folds” in data set [1] (M2 two-membranes group). Moreover, the “relative fluorescence units of saline in the receiving end” value in data set [1] (M1+B single-membrane transcranial group, RWS) is 631.5±21.12 RFU; in data set [1] (M1+B single-membrane transcranial group, USM, 3 W/cm^2, 3 times 3 minutes), 2362±64.91 RFU; in data set [1] (M1-20° single-membrane with tilt group, RWS), 309.7±20.54 RFU; in data set [1] (M1-20° single-membrane with tilt group, USM), 1756.3±76.29 RFU; in data set [1] (M1 single-membrane group, USM, 3 W/cm^2, 3 times 1 minute), 2726.3±79.97 RFU; in data set [1] (M1 single-membrane group, round window soaking (RWS)), 394.5±5.3 RFU. The “relative fluorescence units of saline in the receiving end” value is 285.7±7.45 RFU in data set [1] (M2 two-membranes group, RWS) and 1363.7±56.66 RFU in data set [1] (M2 two-membranes group, USM, 3 W/cm^2, 3 times 1 minute). The “relative fluorescence units of perilymph fluid” value is reported as 1633.33±72.63 RFU in data set [2] (RWS group A, stood 3 minutes without ultrasound); 6700±69.74 RFU in data set [2] (RWS group B, stood 9 minutes without ultrasound); 4206.83±202.93 RFU in data set [2] (transcanal group (USM), 3 W/cm^2, 3 times 1 minute); 10113±338.8 RFU in data set [2] (transcranial group (USM), 3 W/cm^2, 3 times 3 minutes). Further, the “ratio of permeability transcanal USM/RWS group A” value in data set [2] is “about 2.83 folds”. For the same substance, the “ratio of permeability transcranial USM/RWS group B” value in data set [2] was “about 1.5 folds”.
